Values quoted from earlier work, collected in patent US10544066B2, “Microencapsulated nitrification inhibitor compositions” (DOW AGROSCIENCES LLC, priority 2014, dated 2020).

Details: at 23° Celsius

Clc1cccc(C(Cl)(Cl)Cl)n1 [nitrapyrin, 2-chloro-6-(trichloromethyl)pyridine]
vapor pressure: 2.8×10^−3 mm Hg
